From ChEMBL document CHEMBL1126959, “HMG-CoA reductase inhibitors: design, synthesis, and biological activity of tetrahydroindazole-substituted 3,5-dihydroxy-6-heptenoic acid sodium salts” (J Med Chem, 1993)
One block for each compound: values may come before it.

Tests used:
[1] = target: T1, 3-hydroxy-3-methylglutaryl-coenzyme A reductase (Rattus norvegicus, UniProt P51639); experiment: Inhibitory activity against partially purified rat liver HMG-CoA reductase in vitro; 1.9-5.3
T1 sequence (P51639 whole entry): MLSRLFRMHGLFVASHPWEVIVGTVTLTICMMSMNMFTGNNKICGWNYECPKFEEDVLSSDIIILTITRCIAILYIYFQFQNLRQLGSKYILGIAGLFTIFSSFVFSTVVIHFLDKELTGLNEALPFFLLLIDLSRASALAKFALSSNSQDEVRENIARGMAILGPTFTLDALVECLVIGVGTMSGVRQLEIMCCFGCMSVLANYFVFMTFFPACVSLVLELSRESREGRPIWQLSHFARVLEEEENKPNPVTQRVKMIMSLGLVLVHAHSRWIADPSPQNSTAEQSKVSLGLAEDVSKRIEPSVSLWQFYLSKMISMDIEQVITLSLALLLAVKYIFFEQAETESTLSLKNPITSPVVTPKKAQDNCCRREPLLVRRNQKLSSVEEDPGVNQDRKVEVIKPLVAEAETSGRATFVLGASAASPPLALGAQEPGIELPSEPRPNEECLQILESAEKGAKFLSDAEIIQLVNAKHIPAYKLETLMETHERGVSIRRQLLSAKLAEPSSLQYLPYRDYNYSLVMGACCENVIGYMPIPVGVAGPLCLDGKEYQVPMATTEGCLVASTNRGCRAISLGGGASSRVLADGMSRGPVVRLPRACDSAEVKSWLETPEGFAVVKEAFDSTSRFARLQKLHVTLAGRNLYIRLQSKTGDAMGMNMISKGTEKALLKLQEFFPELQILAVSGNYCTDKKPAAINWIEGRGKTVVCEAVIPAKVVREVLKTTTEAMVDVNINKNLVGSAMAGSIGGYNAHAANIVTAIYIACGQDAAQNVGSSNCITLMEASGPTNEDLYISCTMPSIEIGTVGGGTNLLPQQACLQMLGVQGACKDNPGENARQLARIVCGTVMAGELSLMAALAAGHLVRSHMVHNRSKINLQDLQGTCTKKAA

[2] = target: T1, 3-hydroxy-3-methylglutaryl-coenzyme A reductase; experiment: Inhibitory activity against partially purified rat liver HMG-CoA reductase in vitro; 3.1-9.1
[3] = target: T1, 3-hydroxy-3-methylglutaryl-coenzyme A reductase; experiment: Inhibitory activity against partially purified rat liver HMG-CoA reductase in vitro; 0.047-0.098
HepG2 [4] = experiment: Tested for ability to inhibit incorporation of [14C]acetate into cholesterol in cultured human hepatoma (HEP-G2) cells; 0.11-0.27; type: functional, cell-based
HepG2 [5] = experiment: Tested for ability to inhibit incorporation of [14C]acetate into cholesterol in cultured human hepatoma (HEP-G2) cells; 0.26-0.80; type: functional, cell-based
[6] = target: T1, 3-hydroxy-3-methylglutaryl-coenzyme A reductase; experiment: Inhibitory activity against partially purified rat liver HMG-CoA reductase in vitro; 0.021-0.036
[7] = target: T1, 3-hydroxy-3-methylglutaryl-coenzyme A reductase; experiment: Inhibitory activity against partially purified rat liver HMG-CoA reductase in vitro; 3.8-19
[8] = target: T1, 3-hydroxy-3-methylglutaryl-coenzyme A reductase; experiment: Inhibitory activity against partially purified rat liver HMG-CoA reductase in vitro; 1.7-2.6
[9] = target: T1, 3-hydroxy-3-methylglutaryl-coenzyme A reductase; experiment: Inhibitory activity against partially purified rat liver HMG-CoA reductase in vitro; 4.1-22
HepG2 [10] = experiment: Tested for ability to inhibit incorporation of [14C]acetate into cholesterol in cultured human hepatoma (HEP-G2) cells; 0.16-0.68; type: functional, cell-based
[11] = target: T1, 3-hydroxy-3-methylglutaryl-coenzyme A reductase; experiment: Inhibitory activity against partially purified rat liver HMG-CoA reductase in vitro; 0.026-0.34
HepG2 [12] = experiment: Tested for ability to inhibit incorporation of [14C]acetate into cholesterol in cultured human hepatoma (HEP-G2) cells; 2.9-4.6; type: functional, cell-based
[13] = target: T1, 3-hydroxy-3-methylglutaryl-coenzyme A reductase; experiment: Inhibitory activity against partially purified rat liver HMG-CoA reductase in vitro; 0.17-0.61
[14] = target: T1, 3-hydroxy-3-methylglutaryl-coenzyme A reductase; experiment: Inhibitory activity against partially purified rat liver HMG-CoA reductase in vitro; 0.0050-0.016
HepG2 [15] = experiment: Tested for ability to inhibit incorporation of [14C]acetate into cholesterol in cultured human hepatoma (HEP-G2) cells; 0.22-0.48; type: functional, cell-based
[16] = target: T1, 3-hydroxy-3-methylglutaryl-coenzyme A reductase; experiment: Inhibitory activity against partially purified rat liver HMG-CoA reductase in vitro; 1.8-3.7
[17] = target: T1, 3-hydroxy-3-methylglutaryl-coenzyme A reductase; experiment: Inhibitory activity against partially purified rat liver HMG-CoA reductase in vitro; 0.73-10
HepG2 [18] = experiment: Tested for ability to inhibit incorporation of [14C]acetate into cholesterol in cultured human hepatoma (HEP-G2) cells; 0.73-91; type: functional, cell-based
[19] = target: T1, 3-hydroxy-3-methylglutaryl-coenzyme A reductase; experiment: Inhibitory activity against partially purified rat liver HMG-CoA reductase in vitro; 0.015-0.51
HepG2 [20] = experiment: Tested for ability to inhibit incorporation of [14C]acetate into cholesterol in cultured human hepatoma (HEP-G2) cells; 0.15-1.7; type: functional, cell-based
HepG2 [21] = experiment: Tested for ability to inhibit incorporation of [14C]acetate into cholesterol in cultured human hepatoma (HEP-G2) cells; 0.053-0.12; type: functional, cell-based
[22] = target: T1, 3-hydroxy-3-methylglutaryl-coenzyme A reductase; experiment: Inhibitory activity against partially purified rat liver HMG-CoA reductase in vitro; 0.23-0.71
HepG2 [23] = experiment: Tested for ability to inhibit incorporation of [14C]acetate into cholesterol in cultured human hepatoma (HEP-G2) cells; 0.061-0.10; type: functional, cell-based

SMILES: O=C(O)C[C@H](O)C[C@H](O)/C=C/c1c2c(nn1-c1ccc(F)cc1)CCCC2
IC50 [2]: 5300 nM

SMILES: O=C(O)C[C@H](O)C[C@H](O)/C=C/c1c2c(nn1-c1ccc(F)cc1)C(Cc1ccccc1)CCC2 (stereo partly drawn)
IC50 [3]: 68 nM
IC50 (HepG2 [4]): 170 nM

SMILES: O=C(O)C[C@H](O)C[C@H](O)/C=C/c1c2c(nn1-c1ccc(F)cc1)C(Cc1cccc3ccccc13)CCC2 (stereo partly drawn)
IC50 (HepG2 [5]): 460 nM
IC50 [6]: 28 nM

SMILES: O=C(O)C[C@H](O)C[C@H](O)/C=C/c1c2c(nn1-c1ccc(F)cc1)C(C1CCCCC1)CCC2 (stereo partly drawn)
IC50 [7]: 8500 nM

SMILES: CC1CCCc2c1nn(-c1ccc(F)cc1)c2/C=C/[C@@H](O)C[C@@H](O)CC(=O)O (stereo partly drawn)
IC50 [8]: 2100 nM

SMILES: O=C(O)C[C@H](O)C[C@H](O)/C=C/c1c2c(nn1-c1ccc(F)cc1)-c1ccccc1CC2
IC50 [9]: 9400 nM

SMILES: O=C(O)C[C@H](O)C[C@H](O)/C=C/c1c2c(nn1-c1ccc(F)cc1)C(Cc1ccccc1Cl)CCC2 (stereo partly drawn)
IC50 (HepG2 [10]): 330 nM
IC50 [11]: 95 nM

SMILES: O=C(O)C[C@H](O)C[C@H](O)/C=C/c1c2c(nn1-c1ccc(F)cc1)C(Cc1ccc3ccccc3c1)CCC2 (stereo partly drawn)
IC50 [14]: 9 nM
IC50 (HepG2 [15]): 330 nM

SMILES: CC(C)n1c(/C=C/C(O)CC(O)CC(=O)O)c(-c2ccc(F)cc2)c2ccccc21 (stereo not drawn) [FLUVASTATIN SODIUM]
IC50 (HepG2 [21]): 79 nM

SMILES: CC[C@H](C)C(=O)O[C@H]1C[C@@H](C)C=C2C=C[C@H](C)[C@H](CC[C@@H]3C[C@@H](O)CC(=O)O3)[C@H]21 [LOVASTATIN]
IC50 [22]: 400 nM
IC50 (HepG2 [23]): 79 nM

The remaining lines, values ahead:

IC50 [1]: 3200 nM
SMILES: CCC(C)C1CCCc2c1nn(-c1ccc(F)cc1)c2/C=C/[C@@H](O)C[C@@H](O)CC(=O)O (stereo partly drawn)

IC50 (HepG2 [12]): 3600 nM
IC50 [13]: 320 nM
SMILES: COc1ccc(CC2CCCc3c2nn(-c2ccc(F)cc2)c3/C=C/[C@@H](O)C[C@@H](O)CC(=O)O)cc1OC (stereo partly drawn)

IC50 [16]: 2600 nM
SMILES: O=C(O)C[C@H](O)C[C@H](O)/C=C/c1c2c(nn1-c1ccc(F)cc1)-c1ccccc1CCC2

IC50 [17]: 2800 nM
IC50 (HepG2 [18]): 8100 nM
SMILES: O=C(O)C[C@H](O)C[C@H](O)/C=C/c1c2c(nn1-c1ccc(F)cc1)C(c1ccccc1)CCC2 (stereo partly drawn)

IC50 [19]: 28 nM
IC50 (HepG2 [20]): 500 nM
SMILES: COc1ccc(CC2CCCc3c2nn(-c2ccc(F)cc2)c3/C=C/[C@@H](O)C[C@@H](O)CC(=O)O)cc1 (stereo partly drawn)
